The structures appear in SMILES notation.

The text below walks through data of patent US10584127B2, “3,3-difluoropiperidine carbamate heterocyclic compounds as NR2B NMDA receptor antagonists” (Rugen Holdings (Cayman) Limited, priority 2015, dated 2020).

In test [1] the test system is pentylenetetrazole-induced convulsions. The test can be described thus: Pentylenetetrazole (PTZ) Seizure Test. It is filed as in vivo, rats. The conditions noted are these: 10 mg/kg p.o., mesylate salt, PTZ 100 mg/kg s.c. The method, then:
Rats, placed in individual macrolon cages (25×19×13 cm), were injected with pentylenetetrazole (PTZ) (100 mg/kg s.c.). The occurrence and latency of clonic and tonic convulsions and death were noted over a 30 minute period. 15 rats were studied per group. The test was performed blind.
Test compound E1-8.2 was administered as the free base.
Compounds were evaluated typically using 0.5% dimethylsulfoxide, 4% hydroxypropyl-b-cyclodextrin water as a vehicle at 1 or more doses (e.g., 1, 3 and 10 mg/kg), administered p.o. 30 minutes before PTZ, and compared with a vehicle control group. Diazepam (16 mg/kg p.o.), administered 60 minutes before PTZ, was used as reference substance. The experiment was performed over 2 separate sub-experiments with N=7 to 8 animals per group and per sub-experiment. Quantitative data (latencies) with the test substance was analyzed by comparing treated groups with vehicle control using Kruskal-Wallis test followed by Mann-Whitney U test. Quantitative data with the reference substance was analyzed using Mann-Whitney U test. Quantal data (frequencies) was analyzed by comparing treated groups with vehicle control using Fisher's Exact Probability tests (*=p<0.05; **=p<0.01; ***=p<0.001).

In test [2] the test system is formalin-induced nociceptive behavior. The test can be described thus: Rat Formalin Model. It is filed as in vivo. The settings on record: rat, 10, 30 and 60 mpk i.p., mesylate salt. The method, then:
The rat formalin model is a tonic model of continuous pain resulting from formalin-induced spontaneous nociceptive behaviors. Intra-paw injection of formalin is a commonly used model to measure spontaneous nociceptive behaviors in rodents (Dubuisson, D. and Dennis, S. G. Pain 4:161, 1977). Subcutaneous plantar injection of formalin causes a bi-phasic nocifensive behavioral response in rodents. The early phase (phase-I) lasts for about 5-10 min following which an interphase occurs without any discernible nociceptive reactions after which the late phase (phase-II) nociceptive reaction ensues continuing from about 20-60 min following formalin injection. Formalin model is a model of tonic, persistent pain, and is widely used for rapid screening of novel analgesic compounds. […] In the present example, effects of test item were assessed in 0-5 minutes from the early phase (phase-I) and 20-35 minutes from the late phase (phase-II) of formalin-induced nociceptive behavior. […]
For all groups, animals were acclimated to the observation chamber for 15 minutes immediately prior to formalin injection. All animals received an intraplantar subcutaneous injection of 50 μL of 5% formalin into the left hind paw and then placed immediately into an observation chamber and formalin-evoked spontaneous nociceptive behaviors in the rats were continuously recorded for 0-60 min using a commercial camcorder. […]

Test [3] relates to KCl-induced cortical spreading depression. As to the kind of experiment: Cortical spreading depression (CSD), aura phase of migraine model. It is filed as in vivo. The settings on record: rats, mesylate salt. The method, then:
The cortical spreading depression model is utilized to investigate whether treatment with compounds of the present invention affect electrophysiological and hemodynamic events in a rat model of migraine.
Rats were anesthetized with 5% isoflurane (in 70% N2O and 30% O2; flow 300 ml/min) and placed in a stereotactic frame. […] The rectal temperature was maintained at 37.0±1.0° C. with a homeothermic blanket system. The skin was opened by a medial incision and retracted laterally. Three burr holes were drilled under saline cooling over the right hemisphere at the following coordinates (mm from bregma): (1) posterior 4.5, lateral, 2.0 (occipital cortex): KCl application site; (2) posterior 0.5, lateral 2.0 (parietal cortex): LDF recording site; (3) anterior 2, lateral 2 (frontal cortex): DC potential recording site. A laser-Doppler flow probe (Oxyflow, Oxford Optronics, UK) to monitor CBF and an invasive Ag/AgCl electrode for measuring direct current (DC) potential shifts were placed in the parietal and frontal cortex burr holes on the intact dura and in the cortex, respectively. The laser-Doppler flow probe was positioned in an area free of large pial and dural vessels to minimize a large-vessel contribution to the signal. For the DC-potential measurement, a reference electrode was fixed in the neck. Dura overlying the occipital cortex was gently removed and care was taken to avoid bleeding. After surgical preparation, the cortex was allowed to recover for 15 minutes under saline irrigation. A cotton ball (2 mm diameter) soaked with 1M KCl was placed on the pial surface and kept moist by placing 5 μl of KCl solution every 15 minutes. Test compound or vehicle was administered ten (10) minutes prior to CSD initiation. […] The number of KCl-induced CSDs was counted for 2 hours. The CBF and DC-potentials were monitored continuously starting from 5 minutes before KCl exposure.
Test compound E1-1.2 was administered as a mesylate salt (mpk based on molecular weight of the mesylate salt).
The data was collected in Windaq acquisition software (Dataq Instruments, USA) at 20 kHz. The raw data was analyzed in Clampfit program (Axon Instruments, USA). The signals were low pass filtered (cut off range 5-10000 Hz) that CSD episodes in DC and CBF could be confirmed. The following parameters were analyzed: i) the number, duration and amplitude of DC-potentials, and ii) the number and amplitude of CBF events.
Doses were given as milligram per kilogram (mpk). […] Bars represent mean±Standard Error of Mean (SEM), and differences were considered to be statistically significant at the P<0.05 level (n=8, * different from vehicle group). Statistical analysis was performed using StatsDirect statistical software. Differences between groups were analyzed by using 1-way ANOVA and Dunnett's post hoc test.

Test [4] addresses cloned human NR1/NR2A (Homo sapiens (Human), UniProt Q12879). The test can be described thus: NR2A antagonist activity, Fluo-4 calcium influx in HEK293 cells. It is filed as cell-based. The settings on record: glutamate 100 μM, glycine 50 μM.
Description: Activation of the NR2A or NR2B subtype of NMDA receptor with glutamate as an agonist and glycine co-agonist on these cells results in calcium influx, which can be monitored with fluorescent indicator Fluo-4.
For experiments, the cells were seeded onto poly-D-lysine-coated 96-well black plates with clear bottom (Corning) at a density of ^˜50,000 cells/well. After overnight culture, the growth medium was removed from the wells and the cells were incubated at 37° C. for 60 min in Hanks buffer containing 4 μM fluo-4-AM (Invitrogen) and 0.1% bovine serum albumin (BSA). After dye-loading, the cells were washed three times with Hanks buffer and incubated for 10 min at room temperature with various concentrations of test compounds prepared in Hanks buffer with 0.1% BSA. The cell plates were placed onto FDSS μCell fluorescence reader (Hamamatsu). After 20 sec reading of background fluorescence, agonist glutamate at final 100 μM and co-agonist glycine at final 50 μM were added to the cells to activate the receptor, and the resulting fluorescence changes were recorded and quantified. Based on the changes in fluorescence intensity, the pharmacological effect of test compounds were analyzed and the IC50 values derived from a non-linear least squares fitting of the concentration-dependent response to a standard logistic equation using Prism (Graphpad, Inc): Amplitude=Max Amplitude/(1+(IC50/[antagonist])^n).

Chain of cloned human NR1/NR2A (Q12879 23-1464, other chains not shown): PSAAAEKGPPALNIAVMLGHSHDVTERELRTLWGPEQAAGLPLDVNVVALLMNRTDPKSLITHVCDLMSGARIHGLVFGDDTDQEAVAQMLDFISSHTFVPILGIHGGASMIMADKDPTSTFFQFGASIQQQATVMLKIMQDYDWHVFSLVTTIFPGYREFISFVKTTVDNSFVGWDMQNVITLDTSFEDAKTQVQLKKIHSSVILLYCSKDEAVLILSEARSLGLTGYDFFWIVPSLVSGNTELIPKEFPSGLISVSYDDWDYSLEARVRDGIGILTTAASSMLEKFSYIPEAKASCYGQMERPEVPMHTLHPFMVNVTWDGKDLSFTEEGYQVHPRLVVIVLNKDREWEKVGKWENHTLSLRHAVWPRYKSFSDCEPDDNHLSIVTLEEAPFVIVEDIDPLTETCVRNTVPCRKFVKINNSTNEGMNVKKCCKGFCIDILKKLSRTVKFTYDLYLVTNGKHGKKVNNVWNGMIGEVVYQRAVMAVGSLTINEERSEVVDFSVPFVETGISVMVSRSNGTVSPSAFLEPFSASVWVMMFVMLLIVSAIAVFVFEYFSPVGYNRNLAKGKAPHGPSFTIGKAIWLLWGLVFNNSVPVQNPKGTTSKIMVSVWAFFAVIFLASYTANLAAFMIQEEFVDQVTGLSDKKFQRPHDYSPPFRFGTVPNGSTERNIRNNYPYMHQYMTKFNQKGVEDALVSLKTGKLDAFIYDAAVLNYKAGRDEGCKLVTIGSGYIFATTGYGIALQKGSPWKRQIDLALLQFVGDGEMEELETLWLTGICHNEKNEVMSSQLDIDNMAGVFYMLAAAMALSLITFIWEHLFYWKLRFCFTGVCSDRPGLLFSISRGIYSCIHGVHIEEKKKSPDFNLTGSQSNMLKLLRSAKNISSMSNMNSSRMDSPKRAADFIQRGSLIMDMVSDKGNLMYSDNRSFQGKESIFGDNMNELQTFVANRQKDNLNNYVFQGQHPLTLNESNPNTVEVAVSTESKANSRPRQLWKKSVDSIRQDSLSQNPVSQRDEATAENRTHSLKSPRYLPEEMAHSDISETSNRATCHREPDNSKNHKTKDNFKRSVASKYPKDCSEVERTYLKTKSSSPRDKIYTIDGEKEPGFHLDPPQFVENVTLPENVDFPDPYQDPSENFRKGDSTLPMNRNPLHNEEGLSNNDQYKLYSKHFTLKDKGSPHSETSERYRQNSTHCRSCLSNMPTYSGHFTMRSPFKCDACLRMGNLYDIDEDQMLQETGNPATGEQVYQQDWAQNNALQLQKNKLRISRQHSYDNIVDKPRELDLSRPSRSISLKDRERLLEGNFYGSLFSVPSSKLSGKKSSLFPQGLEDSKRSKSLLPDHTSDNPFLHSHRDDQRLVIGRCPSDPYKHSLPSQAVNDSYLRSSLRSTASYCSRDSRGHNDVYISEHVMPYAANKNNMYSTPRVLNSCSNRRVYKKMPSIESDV

The IC50 is the concentration that inhibits the measured activity by half. For `Cc1ccc(COC(=O)N2CC[C@H](CNc3nccn4cnnc34)C(F)(F)C2)cc1` [Compound E1-1.2, (+)-R-4-methylbenzyl 4-(([1,2,4]triazolo[4,3-a]pyrazin-8-ylamino)methyl)-3,3-difluoropiperidine-1-carboxylate], in test [1], the “latency to death, change vs vehicle controls” value is “+35%” and the “number of deaths, change vs vehicle controls” value was −91%. Moreover, in test [2], the “cumulative time spent on nociceptive behavior in phase I (0-5 mins)” value is recorded as “decreased” and the “cumulative time spent on nociceptive behavior in phase II (20-35 mins)” value was “decreased”. Besides, the “number of CBF events vs vehicle” value in test [3] (10 mg/kg) is “decreased”. Also, the “number of DC potentials vs vehicle group” value in test [3] (3 mpk, 10 mpk and 30 mpk) was “significantly decreased”. The “magnitude of CBF vs vehicle” value in test [3] is “unchanged”. In test [3] (various doses), the “amplitude of DC potentials vs vehicle” value is given as “not statistically different” and the “duration of DC potentials vs vehicle” value is “not statistically different”. For the same compound, in test [4], the IC50 was above 10 µM.
